The target in experiment [1] is T1, hMC1R (Homo sapiens, UniProt Q01726). The experiment is described as follows: Adenylate cyclase. It is filed as cell-based. As to conditions: for functional class at hMC1R: class by maximal cAMP level relative to MTII; for fold drop in potency: hMC1R, Ac-NDP-γ-MSH-NH2 series, comparator implied: peptide 11. (In general: Cyclic AMP is a second messenger, typically raised through Gs and lowered through Gi signalling.)

Another experiment addresses hMC3R (Homo sapiens, UniProt P41968). The experiment is described as follows: Competition binding on whole HEK293 cells, 125I-[Nle4,DPhe7]-α-MSH. As to conditions: concentration of peptide at 50% specific binding, N=4; NB: No Binding at 10^-5 M.
The target in experiment [2] is T2, hMC4R (Homo sapiens, UniProt P32245). Described as above. As to conditions: for hMC4R IC50 / IC50: concentration of peptide at 50% specific binding, N=4, NB: No Binding at 10^-5 M; for IC50: read-out: hMC4R IC50.
Experiment [3] concerns the target T2, hMC4R. The experiment is described as follows: Adenylate cyclase. Type of experiment: cell-based. As to conditions: class by maximal cAMP level relative to MTII.
The target in experiment [4] is T1, hMC1R. The experiment is described as follows: Competition binding on whole HEK293 cells, 125I-[Nle4,DPhe7]-α-MSH. As to conditions: Ac-NDP-γ-MSH-NH2 series, comparator implied: peptide 11.
Experiment [5] addresses human melanocortin 1 receptor (human) (UniProt Q01726).
Experiment [6] has as its target human melanocortin 3 receptor (human) (UniProt P41968).
Experiment [7] addresses human melanocortin 1 receptor (human) (UniProt Q01726). The experiment is described as follows: radioligand binding.
Experiment [8] deals with human melanocortin 5 receptor (human) (UniProt P33032).
For experiment [9], the target named is human melanocortin 4 receptor (human) (UniProt P32245).
Experiment [10] has as its target T2, hMC4R. As to conditions: cited from earlier work.

The values below come from article PMC2775485 (Journal of medicinal chemistry, 2009).

T1 sequence (Q01726 whole entry): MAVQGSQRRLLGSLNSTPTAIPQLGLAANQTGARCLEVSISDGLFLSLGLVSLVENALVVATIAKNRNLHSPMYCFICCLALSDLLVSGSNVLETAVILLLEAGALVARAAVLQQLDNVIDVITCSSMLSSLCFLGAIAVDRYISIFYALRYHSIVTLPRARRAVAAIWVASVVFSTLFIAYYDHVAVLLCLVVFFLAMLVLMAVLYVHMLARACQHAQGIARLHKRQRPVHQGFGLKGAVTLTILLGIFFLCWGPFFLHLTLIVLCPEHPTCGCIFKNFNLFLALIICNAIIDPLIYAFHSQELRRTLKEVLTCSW
human melanocortin 1 receptor (human), sequence (Q01726 whole entry): as above
T2 sequence (P32245 whole entry): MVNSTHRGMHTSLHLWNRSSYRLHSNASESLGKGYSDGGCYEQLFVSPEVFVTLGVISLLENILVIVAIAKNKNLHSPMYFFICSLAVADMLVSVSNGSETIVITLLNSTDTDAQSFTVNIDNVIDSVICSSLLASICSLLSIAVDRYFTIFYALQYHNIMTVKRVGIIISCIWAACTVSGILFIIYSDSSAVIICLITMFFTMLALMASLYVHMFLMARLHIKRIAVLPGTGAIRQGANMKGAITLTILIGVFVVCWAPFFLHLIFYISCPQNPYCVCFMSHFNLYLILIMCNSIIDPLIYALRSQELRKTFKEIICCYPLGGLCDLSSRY
human melanocortin 3 receptor (human), sequence (P41968 whole entry): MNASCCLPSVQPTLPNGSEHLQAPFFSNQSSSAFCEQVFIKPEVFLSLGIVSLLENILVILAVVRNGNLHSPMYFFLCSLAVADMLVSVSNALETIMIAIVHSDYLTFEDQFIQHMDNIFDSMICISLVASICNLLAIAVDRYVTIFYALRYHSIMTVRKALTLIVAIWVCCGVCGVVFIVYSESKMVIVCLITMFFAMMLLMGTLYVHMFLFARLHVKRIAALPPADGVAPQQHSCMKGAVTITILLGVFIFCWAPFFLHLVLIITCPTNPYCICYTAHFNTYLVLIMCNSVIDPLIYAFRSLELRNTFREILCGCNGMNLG
hMC3R, sequence (P41968 whole entry): as above
human melanocortin 5 receptor (human), sequence (P33032 whole entry): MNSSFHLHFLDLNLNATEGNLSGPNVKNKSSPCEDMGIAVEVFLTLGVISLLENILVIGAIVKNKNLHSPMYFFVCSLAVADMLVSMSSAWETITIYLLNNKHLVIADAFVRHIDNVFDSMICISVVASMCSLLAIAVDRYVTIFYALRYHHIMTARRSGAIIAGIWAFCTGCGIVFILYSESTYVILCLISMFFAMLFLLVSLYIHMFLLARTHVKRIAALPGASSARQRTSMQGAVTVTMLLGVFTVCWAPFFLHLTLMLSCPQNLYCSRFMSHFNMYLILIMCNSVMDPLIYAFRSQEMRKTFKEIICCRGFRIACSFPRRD
human melanocortin 4 receptor (human), sequence (P32245 whole entry): as the sequence (P32245 whole entry) above

For `CCCC[C@H](NC(C)=O)C(=O)N[C@H]1CC(=O)NCCCC[C@@H](C(N)=O)NC(=O)[C@H](Cc2c[nH]c3ccccc23)NC(=O)[C@@H]2CCCN2C(=O)[C@@H](Cc2ccccc2)NC(=O)[C@H](Cc2c[nH]cn2)NC1=O` [Peptide 1], at hMC1R [1], the “functional class at hMC1R” value was “partial agonist (triggers a maximal cAMP level that is 20%-80% of MTII triggered maximal cAMP response)”.
On to `CCCC[C@H](NC(C)=O)C(=O)N[C@H]1CC(=O)NCCCC[C@@H](C(N)=O)NC(=O)[C@H](Cc2c[nH]c3ccccc23)NC(=O)[C@H](CCCNC(=N)N)NC(=O)[C@@H](Cc2ccccc2)NC(=O)[C@@H]2C[C@@H](NC(=N)N)CN2C1=O` [Peptide 4], for which the “hMC3R IC50” value on hMC3R was “single-digit nanomolar range”. Further, the “hMC4R IC50” value at hMC4R [2] is listed as “single-digit nanomolar range”.
Consider `CCCC[C@H](NC(C)=O)C(=O)N[C@H]1CC(=O)NCCCC[C@@H](C(N)=O)NC(=O)[C@H](Cc2c[nH]c3ccccc23)NC(=O)[C@H](CCCNC(=N)N)NC(=O)[C@@H](Cc2ccccc2)NC(=O)[C@@H]2C[C@H](NC(=N)N)CN2C1=O` [Peptide 5], for which, at hMC3R, the “hMC3R IC50” value is “single-digit nanomolar range”. The “hMC4R IC50” value at hMC4R [2] was “single-digit nanomolar range”.
`CCCC[C@H](NC(C)=O)C(=O)N[C@H]1CC(=O)NCCCC[C@@H](C(N)=O)NC(=O)[C@H](Cc2c[nH]c3ccccc23)NC(=O)[C@@H]2CCCN2C(=O)[C@@H](Cc2ccc3ccccc3c2)NC(=O)[C@H](Cc2c[nH]cn2)NC1=O` [Peptide 6]: the “functional class at hMC1R” value on hMC1R [1] is reported as “partial agonist (triggers a maximal cAMP level that is 20%-80% of MTII triggered maximal cAMP response)”.
Same read-out and setting: the same measure for `CCCC[C@H](NC(C)=O)C(=O)N[C@H]1CC(=O)NCCCC[C@@H](C(N)=O)NC(=O)[C@H](Cc2c[nH]c3ccccc23)NC(=O)[C@@H]2C[C@H](NC(=N)N)CN2C(=O)[C@@H](Cc2ccc3ccccc3c2)NC(=O)[C@H](Cc2c[nH]cn2)NC1=O` [Peptide 8]: “full agonist (80%-100% level of MT II)”.
Take `CCCC[C@H](NC(=O)[C@@H](NC(=O)[C@H](Cc1ccc(O)cc1)NC(C)=O)C(C)C)C(=O)NCC(=O)N[C@@H](Cc1c[nH]cn1)C(=O)N[C@H](Cc1ccccc1)C(=O)N1CCC[C@H]1C(=O)N[C@@H](Cc1c[nH]c2ccccc12)C(=O)N[C@@H](CC(=O)O)C(=O)N[C@@H](CCCNC(=N)N)C(=O)N[C@@H](Cc1ccccc1)C(=O)NCC(N)=O` [Peptide 11]: the “functional class at hMC4R” value on hMC4R [3] is given as “partial agonist (triggers a maximal cAMP level that is 20%-80% of MTII triggered maximal cAMP response)”. At hMC1R [1], the “functional class at hMC1R” value is recorded as “partial agonist (triggers a maximal cAMP level that is 20%-80% of MTII triggered maximal cAMP response)”. Also, the “binding affinity at the hMC4R, fold lower/weaker than peptide 1” value on hMC4R [2] (relative to control peptide 1) is reported as 25 fold. For the same molecule, the “binding affinity at the hMC4R, fold lower than peptide 6” value at hMC4R [2] (relative to peptide 6) turned out to be 8 fold.
A word on the IC50: it is the midpoint of a concentration-inhibition curve. Take `CCCC[C@H](NC(=O)[C@@H](NC(=O)[C@H](Cc1ccc(O)cc1)NC(C)=O)C(C)C)C(=O)NCC(=O)N[C@@H](Cc1cnc[nH]1)C(=O)N[C@H](Cc1ccccc1)C(=O)N1C[C@H](NC(=N)N)C[C@H]1C(=O)N[C@@H](Cc1c[nH]c2ccccc12)C(=O)N[C@@H](CC(=O)O)C(=O)N[C@@H](CCCNC(=N)N)C(=O)N[C@@H](Cc1ccccc1)C(=O)NCC(N)=O` [Peptide 12]: at hMC1R [1], the “functional class at hMC1R” value was “full agonist (80%-100% level of MT II)” and the “fold drop in potency” value is listed as “more than 11 fold”. Besides, at hMC1R [4], the “fold drop in binding affinity” value was 4-5 fold. Moreover, on hMC4R [2], the IC50 was more than 10 µM.
In the case of `CCCC[C@H](NC(=O)[C@@H](NC(=O)[C@H](Cc1ccc(O)cc1)NC(C)=O)C(C)C)C(=O)NCC(=O)N[C@@H](Cc1cnc[nH]1)C(=O)N[C@H](Cc1ccccc1)C(=O)N1C[C@@H](NC(=N)N)C[C@H]1C(=O)N[C@@H](Cc1c[nH]c2ccccc12)C(=O)N[C@@H](CC(=O)O)C(=O)N[C@@H](CCCNC(=N)N)C(=O)N[C@@H](Cc1ccccc1)C(=O)NCC(N)=O` [Peptide 13], on hMC1R [1], the “functional class at hMC1R” value is recorded as “full agonist (80%-100% level of MT II)” and the “fold drop in potency” value is reported as “more than 11 fold”. Moreover, on hMC1R [4], the “fold drop in binding affinity” value was 4-5 fold. Also, the half-inhibitory concentration (IC50) at hMC4R [2] is more than 10 µM.
As for “peptide 1 (MTII with Arg8 replaced by Pro)”, in experiment [5], the cAMP accumulation in receptor-transfected HEK293 cells, EC50 was more than 1 µM and the cAMP accumulation, %max of MTII amounted to 75%.
Turning to “peptide 9 (SHU9119 with His6 replaced by 4-guanidinyl-Pro)”, the cAMP accumulation in receptor-transfected HEK293 cells, EC50 worked out at 0.62 µM in [5] and 0.13 µM in [6]. Also, the cAMP accumulation, %max of MTII in [5] stood at 25%.
In experiment [7], “peptide 10 (SHU9119 with His6 replaced by 4-guanidinyl-Pro)” yielded an IC50 of 0.0012 µM. Moreover, the cAMP accumulation in receptor-transfected HEK293 cells, EC50 was 1.7 µM in experiment [5], 0.085 µM in [8] and 1.4 µM in experiment [9]. The figures for the cAMP accumulation, %max of MTII in [5] and in [8] were 90% and 52%, respectively. The molecule also came in with a cAMP accumulation, %max of MTII (EC50 cell also prints 0) in experiment [6] of 0%.

B1: hASIP: Endogenous antagonist of the hMCRs, agouti signaling protein (protein, UniProt P42127 23-132, looked up)
Agouti-signaling protein: HLPPEEKLRDDRSLRSNSSVNLLDVPSVSIVALNKKSKQIGRKAAEKKRSSKKEASMKKVVRPRTPLSAPCVATRNSCKPPAPACCDPCASCQCRFFRSACSCRVLSLNC
Regarding B1, the “selectivity hMC4R/hMC3R” value with hMC4R [10] is reported as 46 fold.
